# Measured values as given in patent US5302610A, “Renal-selective biphenylmethyl imidazole angiotensin II antagonists for treatment of hypertension” (G. D. Searle & Co., priority 1991, dated 1994).
# Experiments:
# AII receptor = assay: Assay C: In Vivo Intraduodenal Pressor Assay Response for AII Antagonists; design: species or system male Sprague-Dawley rats
# Experimental: The in vivo AII receptor antagonist activity of Example #5 compound was examined in ganglion-blocked male Sprague-Dawley rats (Harlan Sprague-Dawley, Inc.), weighing 300-400 g, anesthetized with 100 mg/kg i.p. Inactin. Catheters (PE-50) were implanted in a femoral artery and vein to measure mean arterial pressure and to administer compounds, respectively. A tracheal catheter maintained airway patency. For intravenous experiments, autonomic neurotransmission was blocked by treatment with mecamylamine (3 mg/kg i.v.) and atropine (400 μg/kg i.v.). AII (30 ng/kg i.v., 20-25 μl volume) was administered four times at 10 minute intervals to establish a reproducible control pressor response. Example #5 compound was then administered at 1, 3 and 10 mg/kg in separate groups of rats as an intravenous bolus (0.2 ml volume) before rechallenging with AII (30 ng/kg, 20-25 μl volume) for the following 2 hours. For intraduodenal experiments, rats were anesthetized as above, but ganglion blockade was not performed. AII was administered at 100 ng/kg i.v. (20-25 μl volume), and was administered at 10, 30 and 100 mg/kg in separate groups of rats as an intraduodenal bolus (0.2 ml volume). […] The response to AII was calculated as percent of the control response and then the percent inhibition was calculated as 100 minus the percent control response. Duration of action of a test compound was defined as the time from peak percent inhibition to 50% of peak. The test compound was tested in two rats and the values for the two rats were averaged.
# [1] = tested on: response to angiotensin II (urinary sodium excretion); assay: Assay E: Urinary Sodium Excretion, acute administration with AII infusion; format: in vivo, male Sprague-Dawley rats, conscious; conditions: for Urinary Sodium Excretion: means±SE
# Experimental: (§1) antagonist compound (Ex. #5) and a glutamyl conjugate (Ex. #81) of the Ex. #5 AII antagonist compound to determine the renal selectivity of the conjugate. Male Sprague-Dawley rats (300-350 g body weight) had catheters implanted into the femoral artery and vein under chloral hydrate anesthesia (400 mg/kg, i.p.). After 2 to 4 days of recovery, on the experimental day, a urinary bladder catheter was implanted under methohexital anesthesia (50 mg/kg, i.p.). Rats were placed in a restraint device to allow for urine collection and mean arterial pressure measurements. After 1-2 hours of recovery, in conscious rats, an isotonic saline infusion (50 μl/min) was started and continued for the duration of the experiment. After one hour equilibration to the saline infusion, a 20 minute control urine and mean arterial pressure collection were obtained. Then angiotensin II was infused at 20 ng/min for 25 minutes. After 5 minutes of angiotensin II infusion, a 20 minute experimental collection was made. Finally, 5 minutes after the end of angiotensin II infusion, a 20 minute recovery collection was obtained. In separate groups of rats, vehicle (0.3 ml isotonic saline, i.v. bolus), Example #5 angiotensin II antagonist compound (100 mg/kg, i.v. bolus), or Example #81 conjugate (100 mg/kg, i.v. bolus) was administered 1-2 minutes prior to onset of angiotensin II infusion. […] Results are shown in Tables XIII and XIV and also in FIGS. 3 and 4. Data are presented as means±SE. Repeated measures analysis of variance was used for main effects and interactions and Tukey's HSD test was used for pairwise comparisons among means. Statistical significance was defined as p<0.05.
# [2] = tested on: response to angiotensin II (mean arterial pressure); assay: Assay E: Mean Arterial Pressure, acute administration with AII infusion; format: in vivo, male Sprague-Dawley rats, conscious; conditions: for Mean Arterial Pressure: n = 6, means±SE
# Experimental: as §1
# [3] = tested on: vascular smooth muscle, AII response (rabbit aortic rings); assay: Assay B: In Vitro Vascular Smooth Muscle Response for AII (rabbit aortic rings); format: cell-based, rabbit (male New Zealand white); conditions: Oryctolagus cuniculus, 5 min, antagonist 10^-5 M, three rabbits, read-out: Assay B PA2 (converted)
# Experimental: Compound of Example #5 was tested for AII antagonist activity in rabbit aortic rings. Male New Zealand white rabbits (2-2.5 kg) were sacrificed using an overdose of pentobarbital and exsanguinated via the carotid arteries. The thoracic aorta was removed, cleaned of adherent fat and connective tissue and then cut into 3-mm ring segments. The endothelium was removed from the rings by gently sliding a rolled-up piece of filter paper into the vessel lumen. The rings were then mounted in a water-jacketed tissue bath, maintained at 37° C., between moveable and fixed ends of a stainless steel wire with the moveable end attached to an FT03 Grass transducer coupled to a Model 7D Grass Polygraph for recording isometric force responses. The bath was filled with 20 ml of oxygenated (95% oxygen/5% carbon dioxide) Krebs solution of the following composition […]: 130 NaCl, 15 NaHCO3, 15 KCl, 1.2 NaH2 PO4, 1.2 MgSO4, 2.5 CaCl2, and 11.4 glucose. The preparations were equilibrated for one hour before approximately one gram of passive tension was placed on the rings. Angiotensin II concentration-response curves were then recorded (3×10^-10 to 1×10^-5 M). […] The effectiveness of the test compound was expressed in terms of pA2 values and were calculated according to H. O. Schild [Br. J. Pharmacol. Chemother., 189-206 (1947)]. […] The test compound was evaluated in aorta rings from three rabbits.
# [4] = 100 mg/kg i.v. bolus, Recovery after AII infusion
# [5] = 100 mg/kg i.v. bolus, during AII infusion 20 ng/min, * in table
# [6] = 100 mg/kg, i.v. bolus, AII 20 ng/min
smiles,measurement,setting,value
CCCCc1nc(Cl)c(CO)n1Cc1ccc(-c2ccccc2C(=O)O)cc1 [Example 5],% Control of AII Pressor Response,"AII receptor; 10 mg/kg intraduodenal, 1 min",100%
same,% Control of AII Pressor Response,"AII receptor; 10 mg/kg intraduodenal, 5 min",94%
same,% Control of AII Pressor Response,"AII receptor; 10 mg/kg intraduodenal, 10 min",99%
same,% Control of AII Pressor Response,"AII receptor; 10 mg/kg intraduodenal, 20 min",85%
same,% Control of AII Pressor Response,"AII receptor; 10 mg/kg intraduodenal, 30 min",91%
same,% Control of AII Pressor Response,"AII receptor; 10 mg/kg intraduodenal, 40 min",91%
same,% Control of AII Pressor Response,"AII receptor; 10 mg/kg intraduodenal, 50 min",95%
same,% Control of AII Pressor Response,"AII receptor; 10 mg/kg intraduodenal, 60 min",93%
same,% Control of AII Pressor Response,"AII receptor; 10 mg/kg intraduodenal, 75 min",95%
same,% Control of AII Pressor Response,"AII receptor; 30 mg/kg intraduodenal, 1 min",48%
same,% Control of AII Pressor Response,"AII receptor; 30 mg/kg intraduodenal, 5 min",48%
same,% Control of AII Pressor Response,"AII receptor; 30 mg/kg intraduodenal, 10 min",44%
same,% Control of AII Pressor Response,"AII receptor; 30 mg/kg intraduodenal, 20 min",28%
same,% Control of AII Pressor Response,"AII receptor; 30 mg/kg intraduodenal, 30 min",34%
same,% Control of AII Pressor Response,"AII receptor; 30 mg/kg intraduodenal, 40 min",42%
same,% Control of AII Pressor Response,"AII receptor; 30 mg/kg intraduodenal, 50 min",41%
same,% Control of AII Pressor Response,"AII receptor; 30 mg/kg intraduodenal, 60 min",53%
same,% Control of AII Pressor Response,"AII receptor; 30 mg/kg intraduodenal, 75 min",74%
same,% Control of AII Pressor Response,"AII receptor; 100 mg/kg intraduodenal, 1 min",28%
same,% Control of AII Pressor Response,"AII receptor; 100 mg/kg intraduodenal, 5 min",19%
same,% Control of AII Pressor Response,"AII receptor; 100 mg/kg intraduodenal, 10 min",15%
same,% Control of AII Pressor Response,"AII receptor; 100 mg/kg intraduodenal, 20 min",14%
same,% Control of AII Pressor Response,"AII receptor; 100 mg/kg intraduodenal, 30 min",9%
same,% Control of AII Pressor Response,"AII receptor; 100 mg/kg intraduodenal, 40 min",5%
same,% Control of AII Pressor Response,"AII receptor; 100 mg/kg intraduodenal, 50 min",13%
same,% Control of AII Pressor Response,"AII receptor; 100 mg/kg intraduodenal, 60 min",10%
same,% Control of AII Pressor Response,"AII receptor; 100 mg/kg intraduodenal, 75 min",13%
same,Urinary Sodium Excretion,[1]; [4],2.6 ± 0.7 μEq/min/100 g BW
same,Urinary Sodium Excretion,[1]; [5],2.5 ± 1.1 μEq/min/100 g BW
same,antinatriuretic (urinary sodium excretion) response to angiotensin II,[1]; [6],prevented both responses to angiotensin II
same,Urinary Sodium Excretion,[1]; Control period (before dosing),2.4 ± 0.5 μEq/min/100 g BW
same,Mean Arterial Pressure,[2]; [4],124 ± 7 mm Hg
same,Mean Arterial Pressure,[2]; [5],125 ± 7 mm Hg
same,mean arterial pressure response to angiotensin II,[2]; [6],prevented both responses to angiotensin II
same,Mean Arterial Pressure,[2]; Control period (before dosing),123 ± 5 mm Hg
same,Kb,[3],74.1 nM
